Measured values reported in BindingDB's records for PubMed 10565829 (Loughborough University, 1999).

Key:
[1] = molecular target: Kappa-type opioid receptor (Cavia porcellus, UniProt P41144)
[2] = molecular target: Mu-type opioid receptor (Cavia porcellus, UniProt P97266)
Sequence of Mu-type opioid receptor (P97266 whole entry): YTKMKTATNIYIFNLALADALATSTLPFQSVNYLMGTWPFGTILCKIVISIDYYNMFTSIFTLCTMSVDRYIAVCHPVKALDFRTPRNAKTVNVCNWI

Sequence of Kappa-type opioid receptor (P41144 whole entry): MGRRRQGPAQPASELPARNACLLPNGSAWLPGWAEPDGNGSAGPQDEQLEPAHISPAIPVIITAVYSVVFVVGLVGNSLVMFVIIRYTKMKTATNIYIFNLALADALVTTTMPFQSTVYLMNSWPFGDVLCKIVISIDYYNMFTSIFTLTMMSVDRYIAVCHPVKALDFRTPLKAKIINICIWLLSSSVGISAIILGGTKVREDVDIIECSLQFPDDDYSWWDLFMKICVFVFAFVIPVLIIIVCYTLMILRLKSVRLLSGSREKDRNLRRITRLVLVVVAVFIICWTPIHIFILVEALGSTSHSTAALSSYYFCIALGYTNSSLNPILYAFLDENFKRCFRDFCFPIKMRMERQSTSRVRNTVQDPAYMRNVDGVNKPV

CO[C@@]12CC[C@@]3(C[C@@H]1[C@@](C)(O)C(C)(C)C)[C@H]1Cc4ccc(O)c5c4[C@@]3(CCN1CC1CC1)[C@H]2O5 [BUPRENORPHINE]
Ki [1]: 2 nM | Ki [2]: 0.57 nM
